# Laboratory results taken from PubChem BioAssay (NCI).
# Where “and” joins values, the source holds several entries; their conditions need not be identical. Equal entries are not always repeated.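 These data come from cells grown in 96-well plates and exposed to compound for 48 hours at five concentrations. At the GI50, growth is halved. TGI denotes the concentration required for complete inhibition of growth.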
# Tests used:
# Assay in all cases: NCI-60 cell line screen, 48 h
# [1] = tested on: SN12C renal
# [2] = tested on: COLO 205 colon
# [3] = tested on: IGROV1 ovarian
# [4] = tested on: 786-0 renal
# [5] = tested on: UO-31 renal
# [6] = tested on: NCI-H522 lung
# [7] = tested on: A549 NSCLC
# [8] = tested on: OVCAR-3 ovarian
# [9] = tested on: HCT-15 colon
# [10] = tested on: NCI-H23 lung
# [11] = tested on: SF-268 CNS
SMILES,TGI [1],TGI [2],TGI [3],TGI [4],TGI [5],TGI [6],TGI [7],TGI [8],TGI [9],TGI [10],TGI [11],GI50 [1],GI50 [2],GI50 [3],GI50 [5],GI50 [6],GI50 [8],GI50 [9],GI50 [10],GI50 [11]
CC(=O)C1C(=O)C(=O)N(c2ccc(Br)cc2)C1=O (stereo unspecified),> 100 µM,> 100 µM,> 100 µM,> 100 µM,> 100 µM,> 100 µM,> 100 µM,> 100 µM,> 100 µM,> 100 µM,> 100 µM,–,–,–,–,–,–,–,–,–
NCCC1([N+](=O)[O-])CCNCC1,> 100 µM,> 100 µM,> 100 µM,> 100 µM,> 100 µM,> 100 µM,> 100 µM,> 100 µM,> 100 µM,> 100 µM,> 100 µM,–,–,–,–,–,–,–,–,–
Nc1cc(N)c(N=Nc2cccc3c(S(=O)(=O)O)cccc23)cc1N=Nc1cc([N+](=O)[O-])ccc1O,> 100 µM,> 100 µM,> 100 µM,> 100 µM,> 100 µM,61.4 µM,67.9 µM,> 100 µM,61 µM,> 100 µM,54.8 µM,–,–,–,–,–,–,–,–,–
CCc1n[nH]c(=S)n1/N=C\c1ccc(-c2ccccc2[N+](=O)[O-])o1,> 100 µM,> 100 µM,> 100 µM,> 100 µM,> 100 µM,> 100 µM,> 100 µM,46.8 µM,> 100 µM,> 100 µM,> 100 µM,–,–,–,–,–,–,–,–,–
C=C(CC)C[C@@H]1C[C@]2(C(=O)OC)c3[nH]c4ccccc4c3CCN2C1=O,41.3 µM,> 100 µM,58 µM,33.5 µM,38.6 µM,36.7 µM,32.4 µM,27.9 µM,34.5 µM,49.7 µM,51.9 µM,–,–,–,–,–,–,–,–,–
C[N+]12CCCCC1C(CN1C(=O)c3ccccc3C1=O)CCC2 (stereo unspecified),> 100 µM,> 100 µM,> 100 µM,> 100 µM,> 100 µM,> 100 µM,> 100 µM,> 100 µM,> 100 µM,> 100 µM,> 100 µM,–,–,–,–,–,–,–,–,–
CCCCCCC(=O)OC[n+]1cccc(-c2c(COC(=O)NC(C)C)c(COC(=O)NC(C)C)c3n2CCC3)c1,> 100 µM,> 100 µM,> 86.6 µM,> 69.8 µM,63.7 µM,43.6 µM,> 100 µM,> 100 µM,> 100 µM,> 74.1 µM,69.9 µM,–,–,–,–,–,–,–,–,–
COC(=O)[C@@H]1[C@H](O)CC[C@H]2[C@@]1(C)CC[C@@H](C)[C@]2(COC(C)=O)CC(=O)c1ccoc1,> 50 µM,> 50 µM,> 50 µM,> 50 µM,> 50 µM,> 50 µM,> 50 µM,> 50 µM,> 50 µM,> 50 µM,> 50 µM,–,–,–,–,–,–,–,–,–
Oc1ccc(Cn2c(-c3ccc(O)cc3)nc3ccccc32)cc1,> 100 µM,> 100 µM,> 100 µM,> 100 µM,> 100 µM,> 100 µM,> 100 µM,> 100 µM,> 100 µM,> 100 µM,> 100 µM,–,–,–,–,–,–,–,–,–
O=C1Nc2ccc(Br)cc2/C1=C/C(=O)c1ccccc1,10.5 µM,3.97 µM,13.3 µM,3.28 µM,6.98 µM,5.17 µM,> 62.6 µM,18.2 µM,6.51 µM,23.8 µM,50.8 µM,–,–,–,–,–,–,–,–,–
COc1ccccc1Cn1[nH]c(=O)c2cc([N+](=O)[O-])ccc21,> 100 µM,> 100 µM,> 100 µM,> 100 µM,> 100 µM,> 100 µM,> 100 µM,83 µM,> 100 µM,> 100 µM,> 100 µM,–,–,–,–,–,–,–,–,–
O=c1c(Sc2ncccn2)c(Sc2ncccn2)cnn1CCl,9.37 µM,4.79 µM,4.76 µM,4.79 µM,3.45 µM,2.37 µM,35.5 µM,10.8 µM,11.8 µM,18.3 µM,9.57 µM,–,–,–,–,–,–,–,–,–
COc1ccc(N2C(=O)C3c4[nH]c5ccc(OCc6ccccc6)cc5c4C4CCC(C(C)C)CC4C3C2=O)cc1 (stereo unspecified),> 100 µM,> 100 µM,> 80.6 µM,> 47.6 µM,> 100 µM,73.4 µM,> 100 µM,> 100 µM,> 100 µM,> 45.3 µM,> 100 µM,–,–,–,–,–,–,–,–,–
CC1=C(C(=O)NC(C)(C)C)CC(C(=O)NC(C)(C)C)C(C)N1 (stereo unspecified),> 100 µM,> 100 µM,> 100 µM,> 100 µM,> 100 µM,> 100 µM,> 100 µM,> 100 µM,> 100 µM,> 100 µM,> 100 µM,–,–,–,–,–,–,–,–,–
CN1CCCC(C(=O)OCC(=O)C2(O)CCC3C4CCC5=CC(=O)CCC5(C)C4C(O)CC32C)C1 (stereo unspecified),24 µM,32.9 µM,> 60.1 µM,14.3 µM,25.4 µM,45.3 µM,> 67.6 µM,32.8 µM,44.1 µM,46.4 µM,46.4 µM,–,–,–,–,–,–,–,–,–
O=C(Nc1ccc(S(=O)(=O)Nc2ncccn2)cc1)c1c2ccccc2nc2ccccc12,> 100 µM,> 100 µM,> 100 µM,> 100 µM,> 100 µM,> 100 µM,> 100 µM,> 100 µM,> 100 µM,> 100 µM,> 100 µM,–,–,–,–,–,–,–,–,–
Cc1ccccc1NC(=O)CSc1nnc(Cc2ccccc2)o1,> 100 µM,> 100 µM,> 100 µM,> 100 µM,> 100 µM,> 100 µM,> 100 µM,> 100 µM,> 100 µM,> 100 µM,> 100 µM,–,–,–,–,–,–,–,–,–
O=C(O)CO/N=C1/C(c2c(O)[nH]c3ccccc23)=Nc2ccccc21,> 100 µM,> 100 µM,> 100 µM,> 100 µM,> 100 µM,> 100 µM,> 100 µM,69.9 µM,> 100 µM,> 100 µM,> 100 µM,–,–,–,–,–,–,–,–,–
CCN(CC)CCC(=O)O[C@H]1CC[C@H](CC(C)[C@H]2CC(=O)C(C)C=C(C)[C@H](OC(=O)CCN(CC)CC)C(OC)C(=O)[C@@H](C)CC(C)/C=C/C=C/C=C(C)C(OC)CC3CC[C@H](C)[C@](O)(O3)C(=O)C(=O)N3CCCCC3C(=O)O2)CC1OC (stereo partly specified),4.28 µM and 2.17 µM,2.8 µM and 2.49 µM,1.81 µM and 1.74 µM,2.47 µM and 1.72 µM,3.08 µM and 1.51 µM,1.98 µM and 1.89 µM,7.54 µM and 9.53 µM,2.27 µM and 2.19 µM,4.46 µM and 3.84 µM,> 10 µM and 3.53 µM,3.06 µM and 3.99 µM,1.42 µM,1.04 µM,0.00595 µM,0.00067 µM and 0.00513 µM,0.017 µM,0.0165 µM and 0.00456 µM,0.0922 µM,1.28 µM,1.16 µM
CC(=O)NC1C(OCc2ccccc2)OC(CO)C(O)C1OCC(=O)N1CCCC1C(=O)NC(CCC(=O)NCCCCCNc1c2ccccc2nc2cccc([N+](=O)[O-])c12)C(N)=O (stereo unspecified),0.0753 µM,0.039 µM,0.86 µM,0.924 µM,0.115 µM,0.25 µM,0.137 µM,0.142 µM,0.0906 µM,0.904 µM,0.0966 µM,–,–,–,–,–,–,–,–,–
CCSC12CC3c4cccc5c4C(CN5C(=O)c4ccccc4)CC3(O1)N(C)C2=O (stereo unspecified),62.9 µM,75 µM,> 100 µM,> 100 µM,> 100 µM,64.7 µM,> 100 µM,> 100 µM,> 100 µM,69.8 µM,> 100 µM,–,–,–,–,–,–,–,–,–
O=C(O)CCc1nc2cc3ccccc3cc2[nH]c1=O,> 100 µM,> 100 µM,> 100 µM,> 100 µM,> 100 µM,> 100 µM,> 100 µM,> 100 µM,> 100 µM,> 100 µM,> 100 µM,–,–,–,–,–,–,–,–,–
Oc1ccccc1-n1nc2ccc3nonc3c2n1,> 100 µM,> 100 µM,> 100 µM,> 100 µM,> 100 µM,> 100 µM,> 100 µM,> 100 µM,> 100 µM,> 100 µM,> 100 µM,–,–,–,–,–,–,–,–,–
CC(=O)C1=NN(c2ccccc2)C2(S1)SC(c1ccccc1)(c1ccccc1)c1ccccc12 (stereo unspecified),> 100 µM,> 100 µM,> 100 µM,> 100 µM,> 100 µM,80.1 µM,> 100 µM,> 100 µM,> 100 µM,> 100 µM,> 100 µM,–,–,–,–,–,–,–,–,–
S=C(Nc1cccc(C2(N3CCCCC3)CCCCC2)c1)Nc1cccc(C2(N3CCCCC3)CCCCC2)c1,> 100 µM,37.6 µM,> 100 µM,30.5 µM,31.5 µM,41 µM,> 100 µM,50.5 µM,> 100 µM,> 100 µM,> 100 µM,–,–,–,–,–,–,–,–,–
c1cc(C[S+]2CCCC2)oc1C[S+]1CCCC1,> 100 µM,> 100 µM,> 100 µM,> 100 µM,> 100 µM,> 100 µM,> 100 µM,> 100 µM,> 100 µM,> 100 µM,> 100 µM,–,–,–,–,–,–,–,–,–
C=CC[C@H]1[C@H](O[Si](C)(C)C(C)(C)C)C=CC(=O)[C@@H]1CC(=O)OCC,29.9 µM,28.6 µM,32.8 µM,27.6 µM,25.6 µM,26.1 µM,23.9 µM,26.4 µM,26.6 µM,33.6 µM,28.9 µM,–,–,–,–,–,–,–,–,–
